The values that follow come from US5273974A, “Condensed heterocyclic compounds, their production and use” (priority 1990, dated 1993).

Structures can show the parent of a compound that is named as a salt.

The target in this experiment is T1, Acetylcholinesterase (Rattus norvegicus, UniProt P37136).
T1 construct: S1 fraction of a homogenate of male Wistar rat cerebral cortex; from tissue; host or cells: male Wistar rat cerebral cortex, S1 fraction of homogenate
T1 sequence (P37136 32-614): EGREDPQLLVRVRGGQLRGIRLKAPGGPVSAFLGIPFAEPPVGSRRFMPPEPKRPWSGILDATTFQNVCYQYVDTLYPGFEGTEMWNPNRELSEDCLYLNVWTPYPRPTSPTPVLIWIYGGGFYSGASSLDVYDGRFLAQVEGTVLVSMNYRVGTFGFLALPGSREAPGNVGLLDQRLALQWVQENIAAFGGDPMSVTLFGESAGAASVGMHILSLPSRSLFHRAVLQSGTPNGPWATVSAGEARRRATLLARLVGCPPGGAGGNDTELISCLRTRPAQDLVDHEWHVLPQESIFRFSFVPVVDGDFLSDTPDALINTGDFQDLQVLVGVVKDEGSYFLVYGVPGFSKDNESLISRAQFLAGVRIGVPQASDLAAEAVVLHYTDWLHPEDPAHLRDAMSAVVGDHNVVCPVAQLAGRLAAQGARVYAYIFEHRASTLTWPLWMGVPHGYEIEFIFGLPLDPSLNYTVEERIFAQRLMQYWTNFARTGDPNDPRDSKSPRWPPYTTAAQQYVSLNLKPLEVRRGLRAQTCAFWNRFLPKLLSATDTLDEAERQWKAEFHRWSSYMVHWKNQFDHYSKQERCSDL
Briefly: Cholinesterase inhibitory activity assayed with (acetyl-[3H])-acetylcholine (S1 fraction of male Wistar rat cerebral cortex homogenate). In kind it is biochemical. The settings on record: (acetyl-[3H])-acetylcholine substrate, 30 minutes incubation.
Procedure: The cholinesterase inhibitory activity of the compound of the present invention was assayed with (acetyl-[3H])-acetylcholine. Thus, using the S1 fraction of a homogenate of male Wistar rat cerebral cortex as the cholinesterase source, (acetyl-[3H])-acetylcholine and the compound of the invention were added as the substrate and the test substance, respectively, and the mixture was incubated for 30 minutes. After the reaction was terminated, a toluene-based scintillant was added and, after shaking, the reaction product [3H]-acetic acid which was transferred to the toluene layer was determined with a scintillation counter to estimate the cholinesterase activity.
For orientation: IC50 means the concentration at which inhibition is half-maximal. The low end stands for higher potency, the high end for lower potency. Regarding `O=C(CCC1CCN(Cc2ccccc2)CC1)c1ccc2c(c1)NCCC2` [Example 6-B, 7-[1-Oxo-3-[1-(phenylmethyl)piperidin-4-yl]propyl]-1,2,3,4-tetrahydroquinoline fumarate], the half-inhibitory concentration (IC50) came out at 54 nM.

In turn, `O=C(CCC1CCN(Cc2ccccc2)CC1)c1ccc2c(c1)NCCCCC2` [Example 27, 9-[1-Oxo-3-[1-(phenylmethyl)piperidin-4-yl]propyl]-1,2,3,4,5,6-hexahydro-1-benzazocine fumarate] had an IC50 of 127 nM.

Take `CCN1CCc2cc(C(=O)CCC3CCN(Cc4ccccc4)CC3)ccc21` [Example 19-11]: the IC50 is 11 nM.

On to `O=C(CCC1CCN(Cc2ccccc2)CC1)c1ccc2c(c1)CCCN2` [Example 2, 6-[1-Oxo-3-[1-(phenylmethyl)piperidin-4-yl]propyl]-1,2,3,4-tetrahydroquinoline dihydrochloride], for which half-maximal inhibition (IC50) required 14 nM.

For `O=C(CCC1CCN(Cc2ccccc2)CC1)c1ccc2c(c1)CCO2` [Example 21, 2,3-Dihydro-5-[1-oxo-3-[1-(phenylmethyl)piperidin-4-yl]propyl]benzofuran hydrochloride], the IC50 was 28 nM. This IC50 lies about 2-fold higher than the previous one.

As to `Cc1cccc(CN2CCC(CCC(=O)c3ccc4c(c3)CCN4)CC2)c1` [Example 19-7], the half-maximal inhibitory concentration (IC50) was 50 nM.

For the compound `O=C(CCC1CCN(Cc2ccccc2)CC1)c1ccc2c(c1)CCN2CCc1ccccc1` [Example 19-15], inhibition was half-maximal at 28 nM (IC50).

`O=C(CCC1CCN(Cc2cccc(F)c2)CC1)c1ccc2c(c1)NCCCC2` [Example 19-21]: half-maximal inhibition (IC50) required 145 nM.

For the compound `O=C(CCC1CCN(Cc2ccccc2)CC1)c1ccc2c(c1)NCC2` [Example 25, 2,3-Dihydro-6-[1-oxo-3-[1-(phenylmethyl)piperidin-4-yl]propyl]-1H-indole fumarate], half-maximal inhibition (IC50) required 113 nM.

`CCCN1CCc2cc(C(=O)CCC3CCN(Cc4ccccc4)CC3)ccc21` [Example 19-12] came in with an IC50 of 22 nM.

Compound `CN1CCc2cc(C(=O)CCC3CCN(Cc4ccccc4)CC3)ccc21` [Example 14, 2,3-Dihydro-1-methyl-5-[1-oxo-3-[1-(phenylmethyl)-piperidin-4-yl]propyl]-1H-indole fumarate] came in with an IC50 of 10 nM. Against the preceding compound, the IC50 is about 2.2-fold lower.

The compound `O=C(CCC1CCN(Cc2ccccc2)CC1)c1ccc2c(c1)CCN2Cc1ccccc1` [Example 15, 2,3-Dihydro-5-[1-oxo-3-[1-(phenylmethyl)piperidin-4-yl]propyl]-1-(phenylmethyl)-1H-indole fumarate] showed an IC50 of 68 nM.

For `CC(=O)N1CCCc2cc(C(=O)CCC3CCN(Cc4ccccc4)CC3)ccc21` [Example 16, 1-Acetyl-6-[1-oxo-3-[1-(phenylmethyl)piperidin-4-yl]propyl]-1,2,3,4-tetrahydroquinoline fumarate], the IC50 is 14 nM.

For `CCCCCN1CCc2cc(C(=O)CCC3CCN(Cc4ccccc4)CC3)ccc21` [Example 19-14], the IC50 was 47 nM.

As to `CCCCN1CCc2cc(C(=O)CCC3CCN(Cc4ccccc4)CC3)ccc21` [Example 19-13], the IC50 was found to be 29 nM. This IC50 is about 1.6-fold lower than that of the compound before.

`CN1CCc2ccc(C(=O)CCC3CCN(Cc4ccccc4)CC3)cc2CC1` [Example 23, 3-Methyl-7-[1-oxo-3-[1-(phenylmethyl)piperidin-4-yl]-propyl-2,3,4,5-tetrahydro-1H-3-benzazepinedihydrochloride] showed an IC50 of 6.5 nM.

Take `O=C(CCC1CCN(Cc2cccc(F)c2)CC1)c1ccc2c(c1)CCN2` [Example 19-8]: the IC50 came out at 16 nM.

`O=C(CCC1CCN(Cc2ccccc2)CC1)c1ccc2c(c1)CCCN2Cc1ccccc1` [Example 3, 1-(Phenylmethyl)-6-[3-[1-(phenylmethyl)piperidin-4-yl]-1-oxopropyl]-1,2,3,4-tetrahydroquinoline dihydrochloride] showed a concentration for half-maximal inhibition (IC50) of 120 nM.

`CN1CCCc2cc(C(=O)CCC3CCN(Cc4ccccc4)CC3)ccc21` [Example 4, 1-Methyl-6-[3-[1-(phenylmethyl)piperidin-4-yl]-1-oxopropyl]-1,2,3,4-tetrahydroquinoline dihydrochloride] had a half-inhibitory concentration (IC50) of 10 nM.

In turn, `O=C(CCC1CCN(Cc2ccccc2)CC1)c1ccc2c(c1)CCCN2Cc1ccccc1` [Example 10, 1-(Phenylmethyl)-6-[1-oxo-3-[1-(phenylmethyl)piperidin-4-yl]propyl]-1,2,3,4-tetrahydroquinoline fumarate] yielded a half-maximal inhibitory concentration (IC50) of 160 nM.

Consider `O=C(CCC1CCN(Cc2ccccc2)CC1)c1ccc2c(c1)CCNCC2` [Example 22, 7-[1-Oxo-3-[1-(phenylmethyl)piperidin-4-yl]propyl]-2,3,4,5-tetrahydro-1H-3-benzazepine dihydrochloride], for which the 50% inhibitory concentration (IC50) came out at 7.6 nM.

For the compound `O=C(CCC1CCN(Cc2ccccc2)CC1)c1ccc2c(c1)NCCCC2` [19-16], the concentration for half-maximal inhibition (IC50) came to 102 nM.

Regarding `O=C(CCC1CCN(Cc2ccccc2)CC1)c1ccc2c(c1)CCN2` [Example 13, 2,3-Dihydro-5-[1-oxo-3-[1-(phenylmethyl)piperidin-4-yl]propyl]-1H-indole fumarate], the IC50 was found to be 20 nM.

Compound `CN1CCCCc2ccc(C(=O)CCC3CCN(Cc4ccccc4)CC3)cc21` [Example 19-17] came in with a half-inhibitory concentration (IC50) of 81 nM.

Turning to `O=C(CCC1CCN(Cc2ccccc2)CC1)c1ccc2c(c1)CCCCN2` [Example 19-20], it took 125 nM to reach half-maximal inhibition (IC50). Against the preceding compound, the IC50 is about 1.5-fold higher.

In the case of `CN1CCCc2cc(C(=O)CCC3CCN(Cc4ccccc4)CC3)ccc21` [Example 8-A, 1-Methyl-6-[1-oxo-3-[1-(phenylmethyl)piperidin-4-yl]-propyl]-1,2,3,4-tetrahydroquinoline fumarate], the half-inhibitory concentration (IC50) was 24 nM. This IC50 is about 5.2-fold lower than that of the compound before.

In turn, `O=C(CCC1CCN(Cc2ccccc2)CC1)c1ccc2c(c1)CCCN2` [Example 6-A, 6-[1-Oxo-3-[1-(phenylmethyl)piperidin-4-yl]propyl]-1,2,3,4-tetrahydroquinoline fumarate] showed an IC50 of 54 nM.

As to `CN1CCCc2ccc(C(=O)CCC3CCN(Cc4ccccc4)CC3)cc21` [Example 8-B, 1-methyl-7-[1-oxo-3-[1-(phenylmethyl)piperidin-4-yl]propyl]-1,2,3,4-tetrahydroquinoline fumarate], the 50% inhibitory concentration (IC50) is 36 nM.
